Results published in US20250102527A1, “METHOD AND DEVICE FOR DETERMINING THE VITAMIN STATUS” (TECHNISCHE UNIVERSITÄT MÜNCHEN, priority 2022, published 2025).
“Also recorded” adds a separate entry of the source.

Tests used:
[1] = molecular target: T1, recombinant human PLP binding protein (PLPBP, UniProt 094903) (Homo sapiens, UniProt O94903); test: Gel-based labeling of recombinant PLPBP with PLxP probes (fluorescence SDS-PAGE); conditions: for labeling of recombinant PLPBP by PLP cofactor mimic: 1 μM PLPBP, 100 μM probe, 1 h r.t., NaBH4 reduction, click to Cy5, fluorescence SDS-Page
T1 construct: made in house; host or cells: E. coli Rosetta2 (DE3)
T1 sequence (O94903 whole entry): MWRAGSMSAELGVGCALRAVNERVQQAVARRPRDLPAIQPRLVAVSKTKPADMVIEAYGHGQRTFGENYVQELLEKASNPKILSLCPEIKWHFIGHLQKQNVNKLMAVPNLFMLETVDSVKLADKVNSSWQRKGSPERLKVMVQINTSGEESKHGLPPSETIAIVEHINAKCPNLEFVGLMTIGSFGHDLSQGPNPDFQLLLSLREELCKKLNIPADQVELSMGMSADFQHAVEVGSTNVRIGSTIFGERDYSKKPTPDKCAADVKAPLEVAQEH
Procedure: Conditions: 1 μM PLPBP, 100 μM probe (incubation 1 h, r.t.), reduction (NaBH4), precipitation (Aceton), wash (MeOH), redissolve in PBS+0.2% SDS, click to Cy5. Analysis via fluorescence SDS-Page.
Structures of the different PLP probes PL1P, PL2P and PL13P (top) that were tested for their labeling efficiency of recombinant PLP binding protein (PLPBP), separately and all three in combination on a fluorescent SDS gel (bottom). The denaturation of PLPBP via increased temperature (heat control, h.c.) prior to labeling with the combination of probes served as negative control. FM=fluorescent marker.
In brief, PLPBP (1 μM in PBS, total volume: 50 μL) was labeled with PLxP probe or mixture of PLxP probes (PL1P, PL2P, PL13P, final conc. 100 μM) at room temperature for 30 min. Upon reduction with […] NaBH4 (1 μl of 250 mM prepared fresh in 0.1 M NaOH) at room temperature for 30 min, proteins were precipitated by adding ice-cold acetone (4× volume) and incubating at −20° C. for at least 1 h. Precipitated proteins were pelletized by centrifugation (18,000×g, 15 min, 4° C.) and washed two times with ice-cold MeOH. For washing, protein pellet is resuspended in 0.2 mL cold methanol (−80° C.) by mild sonication (10 s, 10% intensity) and centrifuged (10 000 rpm, 10 min, 4° C.). Pelletized proteins were resuspended in 50 μl PBS containing […] SDS and Click chemistry was performed by adding 100 μM Cy5 azide (1 μL of 5 mM in DMSO), 100 μM TBTA (3 μL of 1.67 mM in/BuOH/DMSO 80:20), 1 mM TCEP (0.5 μL of 15 mg/mL stock in ddH2O) and 1 mM CuSO4 (1 μL of 50 mM stock in ddH2O) to each sample and incubated for at least 1 h at r.t. Samples were quenched with 2× Lämmli buffer and analysed by SDS-PAGE (12.5% polyacrylamide gels) with subsequent fluorescence scanning.
For this, we selected recombinant human PLP binding protein (PLPBP, UniProt 094903) as a medium abundant model PLP-DE of human erythrocytes.
Conditions: 1 μM PLPBP, 100 μM probe (incubation 1 h, r.t.), reduction (NaBH4), precipitation (aceton), wash (MeOH), redissolve in PBS+0.2% SDS, click to Cy5. Analysis via fluorescence SDS-Page. Results see FIG. 6.

[2] = molecular target: T2, recombinant SHMT1 (Homo sapiens, UniProt P34896); test: Microarray readout of PL2P probe signal on recombinant SHMT1 preincubated with PLP; format: binding; conditions: apoSHMT1 preincubated with 0.5-4.0 eq PLP, fixed with NaBH4, 100 μM PL2P, click to rhodamine azide
T2 construct: made in house; host or cells: E. coli Rosetta2 (DE3)
T2 sequence (P34896 1-483): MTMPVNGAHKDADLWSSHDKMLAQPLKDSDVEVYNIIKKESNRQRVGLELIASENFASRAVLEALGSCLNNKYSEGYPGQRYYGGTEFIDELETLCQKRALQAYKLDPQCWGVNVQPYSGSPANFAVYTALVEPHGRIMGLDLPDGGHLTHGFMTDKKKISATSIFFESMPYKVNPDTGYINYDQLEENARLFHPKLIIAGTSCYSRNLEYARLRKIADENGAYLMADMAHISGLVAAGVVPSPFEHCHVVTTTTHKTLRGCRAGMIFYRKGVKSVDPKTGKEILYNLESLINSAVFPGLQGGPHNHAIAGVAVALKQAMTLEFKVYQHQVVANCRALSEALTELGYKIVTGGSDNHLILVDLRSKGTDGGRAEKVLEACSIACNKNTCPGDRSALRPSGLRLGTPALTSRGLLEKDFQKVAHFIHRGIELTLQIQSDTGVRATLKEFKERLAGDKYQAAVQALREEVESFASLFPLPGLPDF
Procedure: FIG. 11. Signal intensity is dependent on saturation level of PLP-DE with PLP. • (A) PLP loading states of recombinant SHMT1 incubated with increasing equivalents (eq) of PLP were determined by intact protein-MS (n=3) as described previously (Hoegl et al., 2018). • (B) Microarray read out of recombinant SHMT1 bound PL2P probe signals preincubated with PLP equivalents in a physiological range of 0.5-4.0 eq. Mean signal intensities of anti-SHMT1 (n=8) corrected to BSA control and error bars (SD) after fluorescent readout of anti-SHMT1 3. Sample preparation according to workflow 3, as described in the Examples.
40 μM apoSHMT1 (25 μL) samples were incubated with increasing amounts of PLP (0 eq., 0.50 eq., 1.00 eq., 4.00 eq., 32.0 eq.) for 1 h at r.t. and subsequently treated with 20 mM NaBH4 (250 mM stock solution in 0.1 M NaOH) for 30 min at r.t. Reduction was quenched by adding cold acetone (4× volume of sample, −20° C.) for at least 1 h. Precipitated proteins were pelletized (10 000 rpm, 15 min, 4° C.) and supernatant was discarded. […] Samples are subsequently incubated and analysed on the microarrays. […]
The samples were analysed in a single colour approach (without secondary antibody incubation) or dual-colour approach (with secondary antibody incubation) using custom microarrays containing antibodies against OAT, SHMT and PLPBP or a subset of these antibodies. […]

labeling of recombinant PLPBP by PLP cofactor mimic [1] | most suitable PLP cofactor mimic for labeling of recombinant PLPBP ([1]; comparison of PL1P, PL2P, PL13P via SDS-Page) | Compound | PL2P probe signal intensity on microarray with increasing PLP saturation of SHMT1 [2]
successfully tested |  | C#Cc1ncc(COP(=O)(O)O)c(C=O)c1O [PL1P, (6-ethynyl-4-formyl-5-hydroxypyridin-3-yl)methyl phosphate] | 
successfully tested | most suitable | (6-(but-3-yn-1-yl)-4-formyl-5-hydroxypyridin-3-yl)methyl phosphate [PL2P] | 
 |  | Cc1ncc(COP(=O)(O)O)c(C=O)c1O [PLP, pyridoxal phosphate] | decrease in signal intensity; also recorded: decline in signal intensity
successfully tested |  | (4-formyl-6-methyl-5-(prop-2-yn-1-yloxy)pyridin-3-yl)methyl phosphate [PL13P] | 
